Source: patent US8895504B2, “Amylin derivatives” (priority 2008, dated 2014)
*1 amine or outer side, *2 acyl side, *3 side chain or, on linkers, in order; H or OH if unused. Where a SMILES comes first, the peptide text is derived from it. Bridges are numbered along the chain shown (N, C = ends). The star is where a group is joined. C20 diacid = O=C(O)CCCCCCCCCCCCCCCCCCC(=O)*; γGlu = O=C(O)[C@H](CCC(=O)[*:2])N[*:1]; AEEA = NCCOCCOCC(=O)O

target: T1, Amylin 3(a) receptor (human calcitonin receptor (CTa) and RAMP-3) (Homo sapiens, UniProt O60896+P30988); assay: Luciferase assay (III), BHK Amylin 3(a)//CRE-luc cells; assay type: cell-based; settings: BHK cells with Amylin 3(a) receptor and CRE luciferase reporter, 4 hours incubation; read-out: Potency Luciferase
T1 construct: expressed in transfected cells; host or cells: BHK570 cells, stably transfected with a CRE-luciferase reporter
Source text: It has previously been published (Poyner D R et al 2002, Pharmacological Reviews 54(2) 233-246) that activation of Amylin receptors (coexpression of Calcitonin receptor and receptor activity modifying peptides RAMPs) by Amylin leads to an increase in the intracellular concentration of cAMP. Consequently, transcription is activated at promoters containing multiple copies of the cAMP response element (CRE). It is thus possible to measure Amylin activity by use of a CRE luciferase reporter gene introduced into BHK cells also expressing an Amylin receptor.
2. Construction of an Amylin 3(a)/CRE-luc Cell Line
A BHK570 cell line stably transfected with the human calcitonin receptor (CTa) and a CRE-responsive luciferase reportergene. The cell line was further transfected with RAMP-3, using standard methods. This turns the Calcitonin receptor into an Amylin 3(a) receptor. Methotrexate, Neomycin, and Hygromycin are selection markers for luciferase, the Calcitonin receptor, and RAMP-3, respectively.
3. Amylin Luciferase Assay
To perform activity assays, BHK Amylin 3(a)//CRE-luc cells were seeded in white 96 well culture plates at a density of about 20,000 cells/well. The cells were in 100 μl growth medium (DMEM with 10% FBS, 1% Pen/Strep, 1 mM Na-pyruvate, 250 nM Methotrexate, 500 μg/ml Neomycin, and 400 μg/ml Hygromycin). After incubation overnight at 37° C. and 5% CO2, the growth medium was replaced by 50 μl/well assay medium (DMEM (without phenol red), Glumamax™, 10% FBS, and 10 mM Hepes, pH 7,4). Further, 50 μl/well of standard or sample in assay buffer were added. After 4 hours incubation at 37° C. and 5% CO2, the assay medium with standard or sample were removed and replaced by 100 μl/well PBS. Further, 100 μl/well LucLite™ was added. The plates were sealed and incubated at room temperature for 30 minutes. Finally, luminescence was measured on a TopCounter (Packard) in SPC (single photon counting) mode.

T1 sequence (O60896 24-148): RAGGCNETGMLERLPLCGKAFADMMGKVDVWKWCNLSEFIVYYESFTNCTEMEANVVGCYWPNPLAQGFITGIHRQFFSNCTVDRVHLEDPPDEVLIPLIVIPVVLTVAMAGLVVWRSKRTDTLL
T1 sequence (P30988 25-474): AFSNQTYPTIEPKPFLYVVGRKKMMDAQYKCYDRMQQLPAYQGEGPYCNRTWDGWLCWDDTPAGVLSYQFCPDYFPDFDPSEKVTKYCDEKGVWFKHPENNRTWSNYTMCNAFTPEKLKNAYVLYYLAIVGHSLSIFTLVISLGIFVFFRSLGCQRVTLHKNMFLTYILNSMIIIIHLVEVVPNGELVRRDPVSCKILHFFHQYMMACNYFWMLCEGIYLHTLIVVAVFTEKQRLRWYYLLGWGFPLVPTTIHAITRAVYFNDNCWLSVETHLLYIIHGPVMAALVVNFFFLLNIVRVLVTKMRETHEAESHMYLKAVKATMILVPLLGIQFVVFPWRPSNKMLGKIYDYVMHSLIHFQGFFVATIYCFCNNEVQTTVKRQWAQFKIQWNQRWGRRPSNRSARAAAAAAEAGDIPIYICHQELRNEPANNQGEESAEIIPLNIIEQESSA

SMILES | EC50 [nM]
CC[C@H](C)[C@H](NC(=O)[C@@H]1CCCN1C(=O)CNC(=O)[C@H](Cc1ccccc1)NC(=O)[C@H](CC(N)=O)NC(=O)[C@H](CC(N)=O)NC(=O)[C@H](CO)NC(=O)[C@H](CO)NC(=O)[C@H](Cc1c[nH]cn1)NC(=O)[C@H](Cc1c[nH]cn1)NC(=O)[C@H](CC(C)C)NC(=O)[C@H](Cc1ccccc1)NC(=O)[C@H](CC(N)=O)NC(=O)[C@H](C)NC(=O)[C@H](CC(C)C)NC(=O)[C@H](CCCNC(=N)N)NC(=O)[C@H](CCC(N)=O)NC(=O)[C@@H](NC(=O)[C@H](C)NC(=O)[C@@H]1CSSC[C@H](NC(=O)[C@H](CCCNC(=N)N)NC(=O)CC[C@H](NC(=O)CCCCCCCCCCCCCCCCCCC(=O)O)C(=O)O)C(=O)N[C@@H](CC(N)=O)C(=O)N[C@@H]([C@@H](C)O)C(=O)N[C@@H](C)C(=O)N[C@@H]([C@@H](C)O)C(=O)N1)[C@@H](C)O)C(=O)N[C@@H](CC(C)C)C(=O)N1CCC[C@H]1C(=O)N1CCC[C@H]1C(=O)N[C@H](C(=O)N[C@@H](CC(N)=O)C(=O)N[C@H](C(=O)NCC(=O)N[C@@H](CO)C(=O)N[C@@H](CC(N)=O)C(=O)N[C@H](C(=O)N[C@@H](Cc1ccc(O)cc1)C(N)=O)[C@@H](C)O)C(C)C)[C@@H](C)O [Example 6, N-alpha-[(S)-4-Carboxy-4-(19-carboxynonadecanoylamino)butyryl]-[Arg1,His17]-pramlintide] ({C20 diacid-γGlu}-RCNTATCATQRLANFLHHSSNNFGPILPPTNVGSNTY-NH2; disulfide 2-7) | 0.3
CC(C)C[C@H](NC(=O)[C@H](CCCNC(=N)N)NC(=O)[C@H](CCC(N)=O)NC(=O)[C@@H](NC(=O)[C@H](C)NC(=O)[C@@H]1CSSC[C@H](NC(=O)[C@H](CCC(=O)O)NC(=O)[C@H](CCCNC(=N)N)NC(=O)[C@H](CCC(=O)O)NC(=O)CC[C@H](NC(=O)CCCCCCCCCCCCCCCCCCC(=O)O)C(=O)O)C(=O)N[C@@H](CC(N)=O)C(=O)N[C@@H]([C@@H](C)O)C(=O)N[C@@H](C)C(=O)N[C@@H]([C@@H](C)O)C(=O)N1)[C@@H](C)O)C(=O)N[C@@H](C)C(=O)N[C@@H](CC(N)=O)C(=O)N[C@@H](Cc1ccccc1)C(=O)N[C@@H](CC(C)C)C(=O)N[C@@H](CCCNC(=N)N)C(=O)N[C@@H](Cc1c[nH]cn1)C(=O)N[C@@H](CO)C(=O)N[C@@H](CO)C(=O)N[C@@H](CC(N)=O)C(=O)N[C@@H](CC(N)=O)C(=O)N[C@@H](Cc1ccccc1)C(=O)NCC(=O)N[C@@H](C)C(=O)N1CCC[C@H]1C(=O)N[C@@H](CC(C)C)C(=O)N[C@@H](CO)C(=O)N[C@@H](CO)C(=O)N[C@H](C(=O)N[C@@H](CC(N)=O)C(=O)N[C@H](C(=O)NCC(=O)N[C@@H](CO)C(=O)N[C@@H](CC(N)=O)C(=O)N[C@H](C(=O)N[C@@H](Cc1ccc(O)cc1)C(N)=O)[C@@H](C)O)C(C)C)[C@@H](C)O [Example 46, N-alpha-[(S)-4-Carboxy-4-(19-carboxynonadecanoylamino)butyryl]-Glu-Arg-[Glu1,Arg17,Ala25,Pro26,Ser28,Ser29]-pramlintide] ({C20 diacid-γGlu}-ERECNTATCATQRLANFLRHSSNNFGAPLSSTNVGSNTY-NH2; disulfide 4-9) | 0.2

The remaining compounds from weak to strong by EC50, led by results:

EC50 [nM] | SMILES
0.1 | CC[C@H](C)[C@H](NC(=O)[C@@H]1CCCN1C(=O)CNC(=O)[C@H](Cc1ccccc1)NC(=O)[C@H](CC(N)=O)NC(=O)[C@H](CC(N)=O)NC(=O)[C@H](CO)NC(=O)[C@H](CO)NC(=O)[C@H](Cc1c[nH]cn1)NC(=O)[C@H](Cc1c[nH]cn1)NC(=O)[C@H](CC(C)C)NC(=O)[C@H](Cc1ccccc1)NC(=O)[C@H](CC(N)=O)NC(=O)[C@H](C)NC(=O)[C@H](CC(C)C)NC(=O)[C@H](CCCNC(=N)N)NC(=O)[C@H](CCC(N)=O)NC(=O)[C@@H](NC(=O)[C@H](C)NC(=O)[C@@H]1CSSC[C@H](NC(=O)COCCOCCNC(=O)CC[C@H](NC(=O)CCCCCCCCCCCCCCCCCCC(=O)O)C(=O)O)C(=O)N[C@@H](CC(N)=O)C(=O)N[C@@H]([C@@H](C)O)C(=O)N[C@@H](C)C(=O)N[C@@H]([C@@H](C)O)C(=O)N1)[C@@H](C)O)C(=O)N[C@@H](CC(C)C)C(=O)N1CCC[C@H]1C(=O)N1CCC[C@H]1C(=O)N[C@H](C(=O)N[C@@H](CC(N)=O)C(=O)N[C@H](C(=O)NCC(=O)N[C@@H](CO)C(=O)N[C@@H](CC(N)=O)C(=O)N[C@H](C(=O)N[C@@H](Cc1ccc(O)cc1)C(N)=O)[C@@H](C)O)C(C)C)[C@@H](C)O [Example 16, N-alpha-[2-(2-{2-[4-(S)-Carboxy-4-(19-carboxynonadecanoylamino)butyrylamino]ethoxy}ethoxy)acetyl]-[His17]-pramlintide (2-37)] ({C20 diacid-γGlu-AEEA}-CNTATCATQRLANFLHHSSNNFGPILPPTNVGSNTY-NH2; disulfide 1-6)
0.1 | CC(C)C[C@H](NC(=O)[C@H](CCCNC(=N)N)NC(=O)[C@H](CCC(N)=O)NC(=O)[C@@H](NC(=O)[C@H](C)NC(=O)[C@@H]1CSSC[C@H](NC(=O)[C@H](CCC(=O)O)NC(=O)[C@H](CCCNC(=N)N)NC(=O)[C@H](CCC(=O)O)NC(=O)CC[C@H](NC(=O)CCCCCCCCCCCCCCCCCCC(=O)O)C(=O)O)C(=O)N[C@@H](CC(N)=O)C(=O)N[C@@H]([C@@H](C)O)C(=O)N[C@@H](C)C(=O)N[C@@H]([C@@H](C)O)C(=O)N1)[C@@H](C)O)C(=O)N[C@@H](C)C(=O)N[C@@H](CC(N)=O)C(=O)N[C@@H](Cc1ccccc1)C(=O)N[C@@H](CC(C)C)C(=O)N[C@@H](Cc1c[nH]cn1)C(=O)N[C@@H](Cc1c[nH]cn1)C(=O)N[C@@H](CO)C(=O)N[C@@H](CO)C(=O)N[C@@H](CCC(N)=O)C(=O)N[C@@H](CC(N)=O)C(=O)N[C@@H](Cc1ccccc1)C(=O)NCC(=O)N[C@@H](C)C(=O)N1CCC[C@H]1C(=O)N[C@@H](CC(C)C)C(=O)N[C@@H](CO)C(=O)N[C@@H](CO)C(=O)N[C@H](C(=O)N[C@@H](CC(N)=O)C(=O)N[C@H](C(=O)NCC(=O)N[C@@H](CO)C(=O)N[C@@H](CC(N)=O)C(=O)N[C@H](C(=O)N[C@@H](Cc1ccc(O)cc1)C(N)=O)[C@@H](C)O)C(C)C)[C@@H](C)O [Example 41, N-alpha-[(S)-4-Carboxy-4-(19-carboxynonadecanoylamino)butyryl]-Glu-Arg-[Glu1,His17,Gln21,Ala25,Pro26,Ser28,Ser29]-pramlintide] ({C20 diacid-γGlu}-ERECNTATCATQRLANFLHHSSQNFGAPLSSTNVGSNTY-NH2; disulfide 4-9)
0.1 | CC[C@H](C)[C@H](NC(=O)[C@@H]1CCCN1C(=O)[C@H](CCC(=O)O)NC(=O)[C@H](Cc1ccccc1)NC(=O)[C@H](CC(N)=O)NC(=O)[C@H](CC(N)=O)NC(=O)[C@H](CO)NC(=O)[C@H](CO)NC(=O)[C@H](Cc1c[nH]cn1)NC(=O)[C@H](Cc1c[nH]cn1)NC(=O)[C@H](CC(C)C)NC(=O)[C@H](Cc1ccccc1)NC(=O)[C@H](CC(N)=O)NC(=O)[C@H](C)NC(=O)[C@H](CC(C)C)NC(=O)[C@H](CCCNC(=N)N)NC(=O)[C@H](CCC(N)=O)NC(=O)[C@@H](NC(=O)[C@H](C)NC(=O)[C@@H]1CSSC[C@H](NC(=O)CC[C@H](NC(=O)CCCCCCCCCCCCCCCCCCC(=O)O)C(=O)O)C(=O)N[C@@H](CC(N)=O)C(=O)N[C@@H]([C@@H](C)O)C(=O)N[C@@H](C)C(=O)N[C@@H]([C@@H](C)O)C(=O)N1)[C@@H](C)O)C(=O)N[C@@H](CC(C)C)C(=O)N1CCC[C@H]1C(=O)N1CCC[C@H]1C(=O)N[C@H](C(=O)N[C@@H](CC(N)=O)C(=O)N[C@H](C(=O)NCC(=O)N[C@@H](CO)C(=O)N[C@@H](CC(N)=O)C(=O)N[C@H](C(=O)N[C@@H](Cc1ccc(O)cc1)C(N)=O)[C@@H](C)O)C(C)C)[C@@H](C)O [Example 44, N-alpha-[(S)-4-Carboxy-4-(19-carboxynonadecanoylamino)butyryl]-[His17,Glu24]-pramlintide (2-37)] ({C20 diacid-γGlu}-CNTATCATQRLANFLHHSSNNFEPILPPTNVGSNTY-NH2; disulfide 1-6)
